{
  "source": "patent US7253172B2",
  "about": "“Dipeptidyl peptidase inhibitors for the treatment of diabetes” (Merck & Co., Inc., priority 2001, dated 2007)",
  "origin": "cited, not measured here",
  "key": {"cardiac allograft": {"tested_on": "cardiac allograft", "conditions": "rats; doubled from day 7 to day 14"}, "hematopoiesis": {"tested_on": "hematopoiesis", "conditions": "mouse, cyclophosphamide-induced neutropenia"}, "DP-IV": {"target": "T1, DP-IV (Homo sapiens, UniProt P27487)", "T1 construct": "GRF is rapidly degraded in plasma to GRF[3–44]", "T1 sequence (P27487 39-766 limits assumed)": "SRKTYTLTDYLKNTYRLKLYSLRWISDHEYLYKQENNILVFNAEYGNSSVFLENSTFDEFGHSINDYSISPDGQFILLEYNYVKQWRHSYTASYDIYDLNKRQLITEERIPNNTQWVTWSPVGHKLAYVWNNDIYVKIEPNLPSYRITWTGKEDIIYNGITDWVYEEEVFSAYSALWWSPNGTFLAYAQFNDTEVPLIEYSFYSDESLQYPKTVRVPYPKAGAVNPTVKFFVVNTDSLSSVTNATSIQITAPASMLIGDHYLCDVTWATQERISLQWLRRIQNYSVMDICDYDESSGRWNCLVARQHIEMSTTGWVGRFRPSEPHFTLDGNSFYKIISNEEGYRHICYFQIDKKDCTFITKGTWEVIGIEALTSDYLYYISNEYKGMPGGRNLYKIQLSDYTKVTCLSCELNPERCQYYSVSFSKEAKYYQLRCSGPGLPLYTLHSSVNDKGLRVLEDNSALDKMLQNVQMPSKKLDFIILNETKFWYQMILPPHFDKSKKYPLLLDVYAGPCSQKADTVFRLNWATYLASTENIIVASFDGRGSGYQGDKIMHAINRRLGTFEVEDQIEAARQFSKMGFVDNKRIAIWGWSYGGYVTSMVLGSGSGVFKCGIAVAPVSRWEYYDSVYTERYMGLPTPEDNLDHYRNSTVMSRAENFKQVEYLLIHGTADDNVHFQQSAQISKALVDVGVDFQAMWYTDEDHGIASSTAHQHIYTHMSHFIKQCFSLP"}},
  "data": [
    {"compound": "CC(C)N1CCC(c2ccccc2)(c2ccccc2)CC1", "note": "[Prodipine, Pro-Pro-diphenyl-phosphonate]", "values": [
      {"measurement": "cardiac allograft survival", "setting": "cardiac allograft", "value": 14, "unit": "day"}
    ]},
    {"compound": "CC(C)[C@H](N)C(=O)N1CCC[C@H]1B(O)O", "note": "[Val-Boro-Pro]", "values": [
      {"measurement": "hematopoiesis", "setting": "hematopoiesis", "value": "stimulates hematopoiesis"}
    ]},
    {"compound": "diprotin A", "values": [
      {"measurement": "degradation of GRF in plasma to GRF[3–44]", "setting": "DP-IV", "value": "prevented"}
    ]}
  ]
}
